Measurements published in PMC12018053 (Biochemistry and Biophysics Reports, 2025).

Experiments:
[1] = molecular target: Delta opioid (DOR) (Homo sapiens, UniProt P41143); assay: NIMH PDSP primary binding screen, DOR; conditions: read-out: Inhibition (%) Delta opioid (DOR)
[2] = molecular target: Kappa opioid (KOR) (Homo sapiens, UniProt P41145); assay: NIMH PDSP primary binding screen, KOR; conditions: read-out: Inhibition (%) Kappa opioid (KOR)
[3] = molecular target: Mu opioid (MOR) (Homo sapiens, UniProt P35372); assay: NIMH PDSP primary binding screen, MOR; conditions: read-out: Inhibition (%) Mu opioid (MOR)
Sequence of Mu opioid (MOR) (P35372 whole entry): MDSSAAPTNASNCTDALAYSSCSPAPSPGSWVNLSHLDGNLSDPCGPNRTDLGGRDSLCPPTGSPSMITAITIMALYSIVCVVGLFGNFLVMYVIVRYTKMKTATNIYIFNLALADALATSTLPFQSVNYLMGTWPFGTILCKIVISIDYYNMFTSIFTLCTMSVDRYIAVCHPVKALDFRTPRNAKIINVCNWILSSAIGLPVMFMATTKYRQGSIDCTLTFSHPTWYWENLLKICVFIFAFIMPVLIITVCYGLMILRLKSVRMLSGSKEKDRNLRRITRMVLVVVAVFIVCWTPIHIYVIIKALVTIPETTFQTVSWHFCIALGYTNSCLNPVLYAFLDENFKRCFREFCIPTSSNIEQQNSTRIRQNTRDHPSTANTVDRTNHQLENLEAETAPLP

[4] = molecular target: T1, 5-HT3 (Homo sapiens, UniProt P46098); assay: NIMH PDSP primary binding screen, 5-HT3; conditions: read-out: Inhibition (%) 5-HT3
T1 sequence (P46098 24-478): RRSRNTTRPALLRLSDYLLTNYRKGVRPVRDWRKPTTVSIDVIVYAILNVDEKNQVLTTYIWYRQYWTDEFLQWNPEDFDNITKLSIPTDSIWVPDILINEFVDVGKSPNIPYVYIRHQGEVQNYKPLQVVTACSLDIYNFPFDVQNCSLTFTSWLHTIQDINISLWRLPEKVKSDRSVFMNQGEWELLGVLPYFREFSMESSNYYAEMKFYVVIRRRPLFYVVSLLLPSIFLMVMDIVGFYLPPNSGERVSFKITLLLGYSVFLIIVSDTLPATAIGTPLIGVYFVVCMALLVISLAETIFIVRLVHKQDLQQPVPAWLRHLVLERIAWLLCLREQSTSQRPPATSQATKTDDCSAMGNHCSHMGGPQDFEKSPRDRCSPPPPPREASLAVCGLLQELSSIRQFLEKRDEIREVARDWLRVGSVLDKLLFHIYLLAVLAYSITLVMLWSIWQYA

[5] = molecular target: T2, 5-HT1A (Homo sapiens, UniProt P08908); assay: NIMH PDSP primary binding screen, 5-HT1A; conditions: read-out: Inhibition (%) 5-HT1A
T2 sequence (P08908 1-422): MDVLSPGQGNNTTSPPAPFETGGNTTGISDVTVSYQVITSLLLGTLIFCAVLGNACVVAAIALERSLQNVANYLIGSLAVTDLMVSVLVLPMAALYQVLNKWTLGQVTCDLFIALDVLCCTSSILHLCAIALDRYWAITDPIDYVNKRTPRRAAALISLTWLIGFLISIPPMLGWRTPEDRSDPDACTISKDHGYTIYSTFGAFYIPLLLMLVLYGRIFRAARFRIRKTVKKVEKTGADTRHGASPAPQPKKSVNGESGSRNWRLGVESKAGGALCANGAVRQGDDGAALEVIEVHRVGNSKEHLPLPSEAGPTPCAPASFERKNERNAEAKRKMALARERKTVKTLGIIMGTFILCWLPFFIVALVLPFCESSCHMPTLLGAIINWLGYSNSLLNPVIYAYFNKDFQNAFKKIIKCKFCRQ

[6] = molecular target: 5-HT2A (Homo sapiens, UniProt P28223); assay: NIMH PDSP primary binding screen, 5-HT2A; conditions: read-out: Inhibition (%) 5-HT2A
Sequence of 5-HT2A (P28223 whole entry, species assumed): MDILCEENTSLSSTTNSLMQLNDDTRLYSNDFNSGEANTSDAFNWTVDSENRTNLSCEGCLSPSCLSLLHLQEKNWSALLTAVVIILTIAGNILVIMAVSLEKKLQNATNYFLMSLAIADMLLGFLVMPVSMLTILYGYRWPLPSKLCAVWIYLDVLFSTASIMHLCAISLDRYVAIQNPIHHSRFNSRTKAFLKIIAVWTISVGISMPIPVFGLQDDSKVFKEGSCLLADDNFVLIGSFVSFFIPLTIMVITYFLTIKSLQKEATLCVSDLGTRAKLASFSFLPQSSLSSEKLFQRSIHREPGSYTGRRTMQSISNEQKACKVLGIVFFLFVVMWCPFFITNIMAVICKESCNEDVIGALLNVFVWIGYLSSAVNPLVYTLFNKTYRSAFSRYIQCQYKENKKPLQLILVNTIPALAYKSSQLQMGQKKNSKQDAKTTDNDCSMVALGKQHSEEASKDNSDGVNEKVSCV

Sequence of Kappa opioid (KOR) (P41145 whole entry): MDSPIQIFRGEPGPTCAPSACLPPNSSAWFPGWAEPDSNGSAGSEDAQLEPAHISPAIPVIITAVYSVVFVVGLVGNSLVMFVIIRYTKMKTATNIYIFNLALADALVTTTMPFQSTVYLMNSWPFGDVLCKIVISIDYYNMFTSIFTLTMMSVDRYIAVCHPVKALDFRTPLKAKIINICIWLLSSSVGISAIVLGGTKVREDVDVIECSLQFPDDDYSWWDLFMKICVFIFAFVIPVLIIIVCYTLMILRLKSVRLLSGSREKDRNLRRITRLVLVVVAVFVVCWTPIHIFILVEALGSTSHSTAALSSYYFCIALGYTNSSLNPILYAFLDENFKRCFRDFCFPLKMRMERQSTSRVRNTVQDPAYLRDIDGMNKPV
Sequence of Delta opioid (DOR) (P41143 whole entry): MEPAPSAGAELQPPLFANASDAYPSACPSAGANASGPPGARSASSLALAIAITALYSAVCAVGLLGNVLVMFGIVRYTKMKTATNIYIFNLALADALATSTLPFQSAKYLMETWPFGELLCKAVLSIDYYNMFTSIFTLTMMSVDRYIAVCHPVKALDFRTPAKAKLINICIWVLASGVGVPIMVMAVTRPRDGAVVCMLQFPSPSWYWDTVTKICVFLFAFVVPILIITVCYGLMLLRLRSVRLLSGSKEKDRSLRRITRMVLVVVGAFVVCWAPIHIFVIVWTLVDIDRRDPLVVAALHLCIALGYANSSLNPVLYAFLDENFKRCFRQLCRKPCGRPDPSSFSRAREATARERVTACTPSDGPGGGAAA

inhibition at 10 µM [1]: 3.1 ± 1.53%
inhibition at 10 µM [2]: -18.1 ± 2.56%
inhibition at 10 µM [3]: 10.6 ± 4.75%
inhibition at 10 µM [4]: -0.28 ± 5.94%
inhibition at 10 µM [5]: 4.83 ± 2.43%
inhibition at 10 µM [6]: 17.4 ± 4.69%
SMILES: O=C(Nc1ccc(-c2ccc3ccncc3c2)cc1)C1CCN(S(=O)(=O)c2ccccc2Cl)CC1 [Compound 4f, 1-((2-chlorophenyl)sulfonyl)-N-(4-(isoquinolin-7-yl)phenyl)piperidine-4-carboxamide]
